Results as given in publication PMC10763615, “Identification and engineering of potent cyclic peptides with selective or promiscuous binding through biochemical profiling and bioinformatic data analysis” (RSC Chemical Biology, 2023).
Read-outs that look alike come from different tables or passages of the source. Positions of bridges follow the written chain, without caps; N, C: chain ends. Residues, ends and D or L forms follow the SMILES beside them.

Legend:
Format in all cases: binding
FGF-R3C ECD = biological target: T1, FGF-R3C ECD (Homo sapiens, UniProt P22607); assay: biochemical; set-up: DNA constructs for the extracellular domain (ECD) of human FGF-; HPC4 (C); made in house; host or cells: HEK 293-6E
T1 sequence (P22607 23-375 limits assumed): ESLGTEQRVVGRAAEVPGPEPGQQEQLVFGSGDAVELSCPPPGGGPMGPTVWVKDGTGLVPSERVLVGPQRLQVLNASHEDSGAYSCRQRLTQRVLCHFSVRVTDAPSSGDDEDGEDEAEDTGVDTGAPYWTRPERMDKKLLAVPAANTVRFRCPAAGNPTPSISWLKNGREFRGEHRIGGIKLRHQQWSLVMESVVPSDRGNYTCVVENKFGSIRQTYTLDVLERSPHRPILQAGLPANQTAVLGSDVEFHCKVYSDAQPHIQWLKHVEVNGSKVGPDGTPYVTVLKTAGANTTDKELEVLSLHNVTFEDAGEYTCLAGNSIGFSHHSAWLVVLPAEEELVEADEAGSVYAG
Summary of the method: (§1)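 Biolayer interferometry with biotinylated FGF-R ECD on streptavidin biosensors in PBS pH 7.4, 0.05% Tween-20, 0.01% BSA. Multi-concentration: purified peptide dilution series fitted to a multi-point KD model.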

FGF-R1C ECD = biological target: T2, FGF-R1C ECD (Homo sapiens, UniProt P11362); assay: biochemical; set-up: DNA constructs for the extracellular domain (ECD) of human FGF-; HPC4 (C); made in house; host or cells: HEK 293-6E
T2 sequence (P11362 22-376 limits assumed): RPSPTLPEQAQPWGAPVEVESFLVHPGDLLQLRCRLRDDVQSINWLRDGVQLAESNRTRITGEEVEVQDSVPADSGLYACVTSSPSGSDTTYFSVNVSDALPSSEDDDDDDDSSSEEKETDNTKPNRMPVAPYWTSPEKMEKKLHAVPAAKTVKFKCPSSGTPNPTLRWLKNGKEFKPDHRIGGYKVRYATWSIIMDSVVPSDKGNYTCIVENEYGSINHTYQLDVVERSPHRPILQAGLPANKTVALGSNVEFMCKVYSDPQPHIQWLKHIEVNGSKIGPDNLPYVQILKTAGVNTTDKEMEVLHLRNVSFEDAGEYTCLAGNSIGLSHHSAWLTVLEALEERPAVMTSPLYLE
Summary of the method: as §1

FGF-R4 ECD = biological target: T3, FGF-R4 ECD (Homo sapiens, UniProt P22455); assay: single concentration BLI of crude peptides; settings: read-out: KD (4)
T3 construct: DNA constructs for the extracellular domain (ECD) of human FGF-; HPC4 (C); made in house; host or cells: HEK 293-6E
T3 sequence (P22455 22-369 limits assumed): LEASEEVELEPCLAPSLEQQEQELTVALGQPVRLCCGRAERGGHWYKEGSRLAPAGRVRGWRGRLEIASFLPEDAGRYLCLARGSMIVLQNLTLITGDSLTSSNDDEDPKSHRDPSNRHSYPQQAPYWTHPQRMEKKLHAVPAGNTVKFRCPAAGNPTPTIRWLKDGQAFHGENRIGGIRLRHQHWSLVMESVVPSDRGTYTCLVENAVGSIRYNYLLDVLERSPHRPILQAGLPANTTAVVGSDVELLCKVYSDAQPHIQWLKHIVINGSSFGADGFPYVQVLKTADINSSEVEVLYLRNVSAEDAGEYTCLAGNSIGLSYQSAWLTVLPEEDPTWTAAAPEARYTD
Summary of the method: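 Biotinylated FGF-R ECD on streptavidin biosensors was dipped into ~1 μM crude peptide in PBS pH7.4 with 0.05% Tween-20 and 0.01% BSA for association, then into buffer for dissociation, and followed by BLI. Fitted KD values were adjusted for peptide concentration measured by UPLC-CAD.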

[1] = crude NNK peptides, single concentration BLI (Table S3)
[2] = crude T18 selection 1 (1:1:1) peptides, single concentration BLI (Table S4)

SMILES	Kd (FGF-R3C ECD) [µM]	Kd (FGF-R1C ECD) [µM]	Kd (FGF-R4 ECD; [1]) [µM]	Kd (FGF-R4 ECD; [2]) [µM]
CSCC[C@H](N)C(=O)N[C@H]1CSSC[C@@H](C(=O)NCC(=O)N[C@@H](CO)C(=O)NCC(=O)N[C@@H](CO)C(=O)N[C@@H](CC(=O)O)C(=O)N[C@@H](Cc2ccc(O)cc2)C(=O)N[C@@H](CCCCN)C(=O)N[C@@H](CC(=O)O)C(=O)N[C@@H](CC(=O)O)C(=O)N[C@@H](CC(=O)O)C(=O)N[C@@H](CC(=O)O)C(=O)N[C@@H](CCCCN)C(N)=O)NC(=O)[C@H](Cc2ccc(O)cc2)NC(=O)[C@H](C(C)C)NC(=O)[C@H](Cc2ccccc2)NC(=O)[C@@H]2CCCN2C(=O)[C@H](CC(C)C)NC(=O)[C@H](Cc2c[nH]c3ccccc23)NC(=O)[C@H](CO)NC(=O)[C@H](CC(=O)O)NC(=O)[C@H](Cc2ccccc2)NC(=O)[C@H](C(C)C)NC1=O (H-MCVFDSWLPFVYCGSGSDYKDDDDK-NH2; disulfide 2-13)	0.618	> 10	> 10	–
CSCC[C@H](NC(C)=O)C(=O)N[C@H]1CSSC[C@@H](C(=O)NCC(=O)N[C@@H](CO)C(=O)NCC(=O)N[C@@H](CO)C(=O)N[C@@H](CC(=O)O)C(=O)N[C@@H](Cc2ccc(O)cc2)C(=O)N[C@@H](CCCCN)C(=O)N[C@@H](CC(=O)O)C(=O)N[C@@H](CC(=O)O)C(=O)N[C@@H](CC(=O)O)C(=O)N[C@@H](CC(=O)O)C(=O)N[C@@H](CCCCN)C(N)=O)NC(=O)[C@H](CCC(N)=O)NC(=O)[C@H](CCC(=O)O)NC(=O)[C@H](Cc2c[nH]c3ccccc23)NC(=O)[C@H](Cc2c[nH]cn2)NC(=O)CNC(=O)[C@H](Cc2ccc(O)cc2)NC(=O)[C@@H]2CCCN2C(=O)[C@H](Cc2c[nH]cn2)NC(=O)[C@H](CCCNC(=N)N)NC(=O)[C@H](Cc2c[nH]cn2)NC(=O)[C@H](CCC(=O)O)NC1=O (Ac-MCEHRHPYGHWEQCGSGSDYKDDDDK-NH2; disulfide 2-14)	> 10	> 10	–	> 10
CC[C@H](C)[C@@H]1NC(=O)[C@H](Cc2ccccc2)NC(=O)[C@@H]2CCCN2C(=O)[C@H](Cc2ccccc2)NC(=O)[C@H](Cc2c[nH]cn2)NC(=O)[C@H]([C@@H](C)O)NC(=O)[C@H](CC(=O)O)NC(=O)[C@H](Cc2ccccc2)NC(=O)[C@H]([C@@H](C)O)NC(=O)[C@@H](NC(=O)[C@@H](N)CCSC)CSSC[C@@H](C(=O)NCC(=O)N[C@@H](CO)C(=O)NCC(=O)N[C@@H](CO)C(=O)N[C@@H](CC(=O)O)C(=O)N[C@@H](Cc2ccc(O)cc2)C(=O)N[C@@H](CCCCN)C(=O)N[C@@H](CC(=O)O)C(=O)N[C@@H](CC(=O)O)C(=O)N[C@@H](CC(=O)O)C(=O)N[C@@H](CC(=O)O)C(=O)N[C@@H](CCCCN)C(N)=O)NC(=O)[C@H]([C@@H](C)O)NC1=O (H-MCTFDTHFPFITCGSGSDYKDDDDK-NH2; disulfide 2-13)	0.287	> 10	> 10	–
CSCC[C@H](NC(C)=O)C(=O)N[C@H]1CSSC[C@@H](C(=O)NCC(=O)N[C@@H](CO)C(=O)NCC(=O)N[C@@H](CO)C(=O)N[C@@H](CC(=O)O)C(=O)N[C@@H](Cc2ccc(O)cc2)C(=O)N[C@@H](CCCCN)C(=O)N[C@@H](CC(=O)O)C(=O)N[C@@H](CC(=O)O)C(=O)N[C@@H](CC(=O)O)C(=O)N[C@@H](CC(=O)O)C(=O)N[C@@H](CCCCN)C(N)=O)NC(=O)[C@H](CC(=O)O)NC(=O)[C@H](CCCNC(=N)N)NC(=O)[C@H](Cc2c[nH]c3ccccc23)NC(=O)[C@H](CC(=O)O)NC(=O)[C@H](Cc2c[nH]cn2)NC(=O)[C@H](Cc2c[nH]c3ccccc23)NC(=O)[C@H](CC(=O)O)NC(=O)[C@H](Cc2ccc(O)cc2)NC(=O)[C@H](Cc2ccc(O)cc2)NC(=O)[C@H](CC(=O)O)NC(=O)[C@H](Cc2ccc(O)cc2)NC(=O)[C@@H]2CCCN2C1=O (Ac-MCPYDYYDWHDWRDCGSGSDYKDDDDK-NH2; disulfide 2-15)	> 10	> 10	–	1.59
CC[C@H](C)[C@@H]1NC(=O)[C@H](CCC(=O)O)NC(=O)[C@H](CC(=O)O)NC(=O)[C@H](CCC(=O)O)NC(=O)[C@H](Cc2ccc(O)cc2)NC(=O)[C@@H](NC(=O)[C@H](CCSC)NC(C)=O)CSSC[C@@H](C(=O)NCC(=O)N[C@@H](CO)C(=O)NCC(=O)N[C@@H](CO)C(=O)N[C@@H](CC(=O)O)C(=O)N[C@@H](Cc2ccc(O)cc2)C(=O)N[C@@H](CCCCN)C(=O)N[C@@H](CC(=O)O)C(=O)N[C@@H](CC(=O)O)C(=O)N[C@@H](CC(=O)O)C(=O)N[C@@H](CC(=O)O)C(=O)N[C@@H](CCCCN)C(N)=O)NC(=O)[C@H](Cc2ccc(O)cc2)NC(=O)[C@H](CC(C)C)NC(=O)[C@H](C(C)C)NC(=O)[C@H](CCCCN)NC(=O)[C@H](Cc2ccc(O)cc2)NC(=O)[C@H](CC(C)C)NC(=O)[C@H](Cc2c[nH]c3ccccc23)NC1=O (Ac-MCYEDEIWLYKVLYCGSGSDYKDDDDK-NH2; disulfide 2-15)	> 10	> 10	–	0.009
CC[C@H](C)[C@@H]1NC(=O)[C@@H](NC(=O)[C@H](CCSC)NC(C)=O)CSSC[C@@H](C(=O)NCC(=O)N[C@@H](CO)C(=O)NCC(=O)N[C@@H](CO)C(=O)N[C@@H](CC(=O)O)C(=O)N[C@@H](Cc2ccc(O)cc2)C(=O)N[C@@H](CCCCN)C(=O)N[C@@H](CC(=O)O)C(=O)N[C@@H](CC(=O)O)C(=O)N[C@@H](CC(=O)O)C(=O)N[C@@H](CC(=O)O)C(=O)N[C@@H](CCCCN)C(N)=O)NC(=O)[C@H](CCCNC(=N)N)NC(=O)CNC(=O)[C@H](CCCNC(=N)N)NC(=O)[C@H](CC(C)C)NC(=O)[C@H](C(C)C)NC(=O)[C@H](CCCCN)NC(=O)[C@H](Cc2ccc(O)cc2)NC(=O)[C@H](CC(C)C)NC(=O)[C@H](CC(C)C)NC1=O (Ac-MCILLYKVLRGRCGSGSDYKDDDDK-NH2; disulfide 2-13)	> 10	> 10	0.128	–
CSCC[C@H](NC(C)=O)C(=O)N[C@H]1CSSC[C@@H](C(=O)NCC(=O)N[C@@H](CO)C(=O)NCC(=O)N[C@@H](CO)C(=O)N[C@@H](CC(=O)O)C(=O)N[C@@H](Cc2ccc(O)cc2)C(=O)N[C@@H](CCCCN)C(=O)N[C@@H](CC(=O)O)C(=O)N[C@@H](CC(=O)O)C(=O)N[C@@H](CC(=O)O)C(=O)N[C@@H](CC(=O)O)C(=O)N[C@@H](CCCCN)C(N)=O)NC(=O)[C@H]([C@@H](C)O)NC(=O)[C@H](CCSC)NC(=O)[C@H](CC(C)C)NC(=O)[C@H](CCCNC(=N)N)NC(=O)[C@H](Cc2c[nH]c3ccccc23)NC(=O)[C@H](CC(C)C)NC(=O)[C@H](CC(C)C)NC(=O)[C@H](Cc2ccccc2)NC(=O)[C@H](Cc2ccc(O)cc2)NC(=O)[C@H](CCCCN)NC(=O)[C@@H]2CCCN2C1=O (Ac-MCPKYFLLWRLMTCGSGSDYKDDDDK-NH2; disulfide 2-14)	> 10	> 10	1.84	–
CSCC[C@H](NC(C)=O)C(=O)N[C@H]1CSSC[C@@H](C(=O)NCC(=O)N[C@@H](CO)C(=O)NCC(=O)N[C@@H](CO)C(=O)N[C@@H](CCC(=O)O)C(=O)N[C@@H](CCC(=O)O)C(=O)NCC(=O)N[C@@H](CO)C(=O)NCC(=O)N[C@@H](CO)C(=O)N[C@@H](CC(=O)O)C(=O)N[C@@H](Cc2ccc(O)cc2)C(=O)N[C@@H](CCCCN)C(=O)N[C@@H](CC(=O)O)C(=O)N[C@@H](CC(=O)O)C(=O)N[C@@H](CC(=O)O)C(=O)N[C@@H](CC(=O)O)C(=O)N[C@@H](CCCCN)C(N)=O)NC(=O)[C@H](CO)NC(=O)[C@H](Cc2c[nH]cn2)NC(=O)[C@H](Cc2ccccc2)NC(=O)[C@H](CC(C)C)NC(=O)[C@H](CCCNC(=N)N)NC(=O)[C@H](Cc2c[nH]c3ccccc23)NC(=O)[C@H](Cc2ccc(O)cc2)NC(=O)[C@H](Cc2ccc(O)cc2)NC(=O)[C@H](CC(C)C)NC(=O)[C@H](Cc2c[nH]cn2)NC(=O)[C@H](CCCNC(=N)N)NC(=O)[C@H](Cc2c[nH]cn2)NC1=O (Ac-MCHRHLYYWRLFHSCGSGSEEGSGSDYKDDDDK-NH2; disulfide 2-15)	> 10	> 10	–	0.005
